Results: patent EP0684822B1, “CARBOCYCLIC DEOXYGUANOSINE ANALOGS FOR THE TREATMENT OF VIRAL INFECTIONS” (SOUTHERN RESEARCH INSTITUTE, priority 1993, dated 1994)
In brackets after ≈: the same amount, converted by molar mass.

Tests used:
[1] = tested on: human CMV; assay: In vitro activity against human CMV in human foreskin fibroblast cells; format: cell-based
Experimental: The in vitro activity of D-2'-CdG was also compared with the current investigational drug of choice for human CMV, DHPG. These experiments were carried out in human foreskin fibroblast cells.

[2] = tested on: MRC5 cell monolayer cultures; assay: Drug cytotoxicity (gross morphology) in MRC5 cell monolayer cultures; format: cell-based
[3] = tested on: HSV-1 (strain 377, TK+); assay: Antiviral activity against HSV-1; format: cell-based; settings: for VR / EC50: HSV-1, range of tests; for EC50: Human alphaherpesvirus 1, read-out: Mic50
Experimental: D-2'-CdG and L-2'-CdG were tested, alongside D,L-2'-CdG, against both HSV-1 (strain 377, TK+; obtained from Dr. Earl Kern, University of Alabama) and HSV-2 (strain MS, TK+; also obtained from Dr. Earl Kern). In these tests (Table 5), Ara-A and acyclovir (ACV) were the positive control drugs. In four tests vs. HSV-1, the antiviral activity (VR) and potency (MIC50) of D-2'-CdG were approximately the same as those of racemic 2-CdG. L-2'-CdG was only modestly active.

[4] = tested on: human CMV; assay: Intravitreal human CMV infection in rabbits; format: in vivo, New Zealand white rabbits; settings: intravitreal injection, 100 µg in 100 µl, 48-hour intervals beginning at day 4
Excerpt: The symptoms included vitritis, iritis, retinal pathology (micro hemorrhages and focal necrosis of the retinal surface), corneal stromal haze and neovascularization, and corneal endothelial pigmented precipitates. […] The intravitreal route offers some significant advantages for intraocular infections including: 1) delivery of maximal concentrations of drug to the desired site of action; 2) increased potential for sustained release (i.e., longer half-life, T1/2) of the drug; and 3) reduced potential for systemic toxicity.

[5] = tested on: MRC5 cell monolayer cultures; assay: Drug cytotoxicity (gross morphology) in MRC5 cell monolayer cultures; format: cell-based; remark: listed apart in the source
Experimental: (§1) The D- and L-enantiomers of 2'-CdG were prepared from racemic C-2,6-DAPR by an enzymatic method as described above Secrist et al. (J. Med. Chem. 30:746, 1987). The effectiveness of racemic-2'-CdG and of D-2'-CdG in reducing CMV yields in MRC5 cell monolayer cultures was determined by a plaque assay with the results set forth in tables 6 and 7.

[6] = tested on: CMV; assay: CMV yield reduction in MRC5 cell monolayer cultures (plaque assay); format: cell-based, human CMV; settings: for CMV Yield PFU/mL: virus controls 1.1 x 10^5; for CMV Yield log10 PFU/mL: virus controls 5.1
Experimental: as §1

[7] = target: T1, HSV-TK extract (Human herpesvirus 1, UniProt P0DTH5); assay: Phosphorylated products formed by HSV-TK extract, SAX HPLC; format: biochemical, HSV-1; settings: for DPM di / DPM mono / DPM nucleoside / DPM total / DPM tri: 10 µM [3H] compound, 2 hours; for major phosphorylated derivative: 50 µM, 60 minutes at 37°C, Fig. 3
T1 construct: HSV thymidine kinase (HSV TK) was isolated from HELA (BU25) cells infected with the SW148 strain of HSV-1; made in house; host or cells: HeLa (BU25) thymidine-kinase-deficient cells infected with HSV-1 strain S148/SW148
T1 sequence (P0DTH5 whole entry): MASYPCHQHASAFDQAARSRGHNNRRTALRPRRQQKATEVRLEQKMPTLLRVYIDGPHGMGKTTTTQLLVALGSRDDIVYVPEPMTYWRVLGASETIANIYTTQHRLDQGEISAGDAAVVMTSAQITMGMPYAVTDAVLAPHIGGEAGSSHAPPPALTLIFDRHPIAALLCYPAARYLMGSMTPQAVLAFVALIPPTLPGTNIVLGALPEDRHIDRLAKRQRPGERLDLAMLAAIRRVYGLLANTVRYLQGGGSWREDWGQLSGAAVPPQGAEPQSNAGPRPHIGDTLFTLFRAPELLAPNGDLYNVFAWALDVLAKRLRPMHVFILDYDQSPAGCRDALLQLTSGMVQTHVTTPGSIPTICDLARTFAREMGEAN
Experimental: HSV thymidine kinase activity was measured in 200 µl volumes containing HSV-TK extract obtained as described previously (Belzarini et al., supra), 5.0 mM ATP, 5 mM MgCl2, 9 mM potassium fluoride, 11.2 µg phosphoenol pyruvate, 5 µg of pyruvate kinase, 10 mM β-mercaptoethanol and either 50 µM [3H]-D-, L, or no drug for 60 minutes at 37°C. The reaction was stopped with perchloric acid (PCA), neutralized with potassium bicarbonate, and the reaction products were analyzed by SAX HPLC. The UV absorption spectra of selected peaks were determined with a rapid spectral detector (LKB, Gaithersburg, MD). […] The amount of monophosphate derived from L-2'CdG was about the same as the amount of triphosphate derived from D-2'CdG, and confirmed the results of the disk assay.
HSV extracts were also incubated with 10 µM of either [^3H]-D- or L-2'Cdg, as described above, to measure the metabolism of these entantiomers. After 2 hours the reaction was stopped with perchloric acid (PCA), neutralized with potassium bicarbonate, and the acid-soluble metabolites were separated using SAX HPLC as described above. The results are summarized below.: TABLE 3

## Nc1nc2c(ncn2[C@@H]2C[C@H](CO)[C@@H](O)C2)c(=O)[nH]1 [D-2'-CdG, [1R,3S,4R-(1α,3β,4α)]-D-2-Amino-1,9-dihydro-9-[3-hydroxy-4-(hydroxymethyl)cyclopentyl]-6H-purin-6-one]
[1]
  antiviral potency relative to DHPG: more than 3 times
[1]; Human betaherpesvirus 5, read-out: ED50 value (median dose at which 50% antiviral efficacy is observed)
  EC50: 0.06 µg/mL (≈ 0.226 µM)
[2]; 0.1 µM
  Drug Cytotoxicity (Gross Morphology): 0
[2]; 1.0 µM
  Drug Cytotoxicity (Gross Morphology): 0
[2]; 10 µM
  Drug Cytotoxicity (Gross Morphology): 0
[2]; 100 µM
  Drug Cytotoxicity (Gross Morphology): slight toxicity
[3]
  VR: 4.8-6.3
  EC50: 0.1 to 0.3 µg/mL (≈ 0.377 to 1.13 µM)
[3]; more potent than ACV
  potency relative to ACV: 5-10 times
[4]
  clinical effect compared to placebo: effective in reducing the development of retinal pathology and in reducing the severity of the vitritis and iritis
  clinical outcome compared to ganciclovir (DHPG) under the same conditions: clinically better than treatment with ganciclovir
[5]; 0.32 µM
  Drug Cytotoxicity (Gross Morphology): 0
[5]; 3.2 µM
  Drug Cytotoxicity (Gross Morphology): 0
[5]; 32 µM
  Drug Cytotoxicity (Gross Morphology): v. sl. toxicity
[5]; 320 µM
  Drug Cytotoxicity (Gross Morphology): toxic
[6]; 0.1 µM
  CMV Yield PFU/mL: 3.8 x 10^4 PFU/mL
  CMV Yield log10 PFU/mL: 4.6 log10 PFU/mL
[6]; 0.32 µM
  CMV Yield PFU/mL: 1.4 x 10^4 PFU/mL
  CMV Yield log10 PFU/mL: 4.1 log10 PFU/mL
[6]; 1.0 µM
  CMV Yield PFU/mL: 5.4 x 10^3 PFU/mL
  CMV Yield log10 PFU/mL: 3.7 log10 PFU/mL
[6]; 3.2 µM
  CMV Yield PFU/mL: 8.4 x 10^2 PFU/mL
  CMV Yield log10 PFU/mL: 2.9 log10 PFU/mL
[6]; 10 µM
  CMV Yield PFU/mL: 2 x 10^1 PFU/mL
  CMV Yield log10 PFU/mL: 1.3 log10 PFU/mL
[6]; 32 µM
  CMV Yield PFU/mL: 0 PFU/mL
[6]; 100 µM
  CMV Yield PFU/mL: 0 PFU/mL
[6]; Human betaherpesvirus 5, MRC5, 0.1 µM, read-out: Reduction (%) of CPE by D-2'CdG at Time of Virus Harvest
  inhibition at 0.1 µM: 0%
[6]; Human betaherpesvirus 5, MRC5, 0.32 µM, read-out: Reduction (%) of CPE by D-2'CdG at Time of Virus Harvest
  inhibition at 0.32 µM: 0%
[6]; Human betaherpesvirus 5, MRC5, 1.0 µM, read-out: Reduction (%) of CPE by D-2'CdG at Time of Virus Harvest
  inhibition at 1 µM: 10%
[6]; Human betaherpesvirus 5, MRC5, 3.2 µM, read-out: Reduction (%) of CPE by D-2'CdG at Time of Virus Harvest
  inhibition at 3.2 µM: 10%
[6]; Human betaherpesvirus 5, MRC5, 10 µM, read-out: Reduction (%) of CPE by D-2'CdG at Time of Virus Harvest
  inhibition at 10 µM: 25%
[6]; Human betaherpesvirus 5, MRC5, 32 µM, read-out: Reduction (%) of CPE by D-2'CdG at Time of Virus Harvest
  inhibition at 32 µM: 50%
[6]; Human betaherpesvirus 5, MRC5, 100 µM, read-out: Reduction (%) of CPE by D-2'CdG at Time of Virus Harvest
  inhibition at 100 µM: 50%
[7]
  DPM di: 2427 DPM
  DPM mono: 2138 DPM
  DPM nucleoside: 38555 DPM
  DPM total: 128000 DPM
  DPM tri: 85073 DPM
  major phosphorylated derivative: the triphosphate

## Nc1nc2c(ncn2[C@H]2C[C@@H](CO)[C@H](O)C2)c(=O)[nH]1 [L-2'-CdG, [1S,3R,4S-(1α,3β,4α)]-L-2-Amino-1,9-dihydro-9-[3-hydroxy-4-(hydroxymethyl)cyclopentyl]-6H-purin-6-one]
[3]
  VR: 0.8-2.4
  EC50: 39 to 257 µg/mL (≈ 147 to 969 µM)
[7]
  DPM di: 2050 DPM
  DPM mono: 115000 DPM
  DPM nucleoside: 40944 DPM
  DPM total: 158000 DPM
  DPM tri: 410 DPM
  major phosphorylated derivative: primarily to the monophosphate form
